How the values were obtained:
[1] = tested on: reperfusion renal injury model; assay: Reperfusion renal injury model (clamping both renal arteries for 60 minutes); type: in vivo, rat; conditions: 24 hours following reperfusion
Description: Two different models of acute renal failure were used: the nephrotoxic acute renal failure model, as described above, and the reperfusion renal injury model, which involved clamping both renal arteries for 60 minutes. (K. J. Kelly, W. W. Williams, R. B. Colvin and J. V. Bonventure, “Intercellular Adhesion Molecule 1 Protects the Kidney Against Ischemic Injury,” Proc. Natl. Acad. Sci. USA, 91:812-816 (1994); and S. Vukicevic, V. Basic, D. Rogic, N. Basic, M. S. Shih, A. Shepard, D. Jin, D. Bosukonda, W. Jones, H. Dorai, S. Ryan, D. Griffiths, J. Maliakal, M. Jelic, M. Pastorcic, A. Stavljenic and K. Sampath, “Osteogenic Protein-1 (Bone Morphogenetic Protein-7) Reduces Severity of Injury After Ischemic Acute Renal Failure in Rat,” J. Clin. Invest.,102:202-214 (1998).)
The animals were dosed with the EP4 agonist just prior to the initiation of the nephrotoxic insult.

EP2 receptor = target: T1, EP2 receptor (Homo sapiens, UniProt P43116); assay: Assay for binding to prostaglandin E2 receptors, 3H-PGE2 displacement (EP2); conditions: displacement of 3H-prostaglandin E2, membranes of transfected 293S cells; read-out: IC50 at EP2 receptor subtype
T1 construct: These full length receptors are used to prepare 293S cells expressing the EP1, EP2, EP3 and EP4 receptors; expressed in transfected cells; membranes
Description: (§1) All operations are performed at 4° C. […] The cells are lysed by sonification with a Branson Sonifier (Model #250, Branson Ultrasonics Corporation, Danbury, Conn.) in 2 fifteen second bursts. Unlysed cells and debris are removed by centrifugation at 100×g for 10 min. Membranes are then harvested by centrifugation at 45,000×g for 30 minutes. Pelleted membranes are resuspended to 3-10 mg of protein per ml of Buffer A, the protein concentration being determined by the method of Bradford [M. Bradford, Anal. Biochem., 72, 248 (1976)]. Resuspended membranes are then stored frozen at −80° C. until use.
(§2) Frozen membranes prepared as above are thawed and diluted to 1 mg protein per ml in Buffer A above. One volume of membrane preparation is combined with 0.05 volume test compound or buffer and one volume of 3 nM ^3H-prostaglandin E2 (#TRK 431, Amersham, Arlington Heights, Ill.) in Buffer A. The mixture (205 μL total volume) is incubated for 1 hour at 25° C. The membranes are then recovered by filtration through type GF/C glass fiber filters (#1205-401, Wallac, Gaithersburg, Md.) using a Tomtec harvester (Model Mach 11/96, Tomtec, Orange, Conn.). […] To determine the amount of ^3H-prostaglandin bound to the membranes, the dried filters are placed into plastic bags with scintillation fluid and counted in a LKB 1205 Betaplate reader (Wallac, Gaithersburg, Md.). […]

[2] = tested on: nephrotoxic acute renal failure model; assay: Nephrotoxic acute renal failure model; type: in vivo, rat
Description: The remnant rat kidney (5/6 nephrectomy) model employed was essentially as previously described in the literature (Vukicevic et al., Journal of Bone and Mineral Research, 2:533-545 (1987)). In brief, male rats (4 months old, weighing approximately 400 g) were anesthesized by intraperitoneal administration of ketamin (20 mg/kg) and then subjected to unilateral nephrectomy (left kidney). All animals were subjected to intraperitoneal administration of 1-3 ml of prewarmed saline to compensate for any fluid loss during the surgery. After one week, ⅔ of the remaining kidney was surgically removed. The rats were allowed to recover for one or two weeks prior to the initiation of the therapy for the prevention of the disease.
Blood samples (0.5 ml) were obtained from the orbital plexus and serum creatinine, BUN (blood urea nitrogen), calcium, phosphate and other blood chemistries were monitored throughout the study. Urine was collected on metabolic cages for 24 h. Creatinine was measured by a Jaffe method. A. W. Whelton, A. J. Watson and R. C. Rock: “Nitrogen Metabolites and Renal Function,” in: Clinical Chemistry (Eds: C. A. Burtis and E. R. Ashwood) W. B. Saunders, Philadelphia, Pa., 1513-1575 (1994). BUN was measured by a glutamate dehydrogenase ultraviolet method, phosphorus by a molybdate method, and calcium by an o-cresolphtaleine method. R. A. Lafayette, R. D. Perrone and A. S. Levey: “Laboratory Evaluation of Renal Function,” in: Diseases of the Kidney (Eds: R. W. Schrier and C. W. Gottschalk), Little, Brown and Company, Inc., Vol. 6, 307-354 (1997). The GFR was calculated using […] (24 hr collection) and adjusted to body weights. The cumulative survival rate was also observed and recorded for both the control and the experimental groups. The kidney was subjected to histomorphometric analysis and scored for tissue pathology.
Two different models of acute renal failure were used: the nephrotoxic acute renal failure model, as described above, and the reperfusion renal injury model, which involved clamping both renal arteries for 60 minutes. […]

EP3 receptor = target: T2, EP3 receptor (Homo sapiens, UniProt P43115); assay: Assay for binding to prostaglandin E2 receptors, 3H-PGE2 displacement (EP3); conditions: displacement of 3H-prostaglandin E2, membranes of transfected 293S cells; read-out: IC50 at EP3 receptor subtype
T2 construct: These full length receptors are used to prepare 293S cells expressing the EP1, EP2, EP3 and EP4 receptors; expressed in transfected cells; membranes
T2 sequence (P43115 1-390): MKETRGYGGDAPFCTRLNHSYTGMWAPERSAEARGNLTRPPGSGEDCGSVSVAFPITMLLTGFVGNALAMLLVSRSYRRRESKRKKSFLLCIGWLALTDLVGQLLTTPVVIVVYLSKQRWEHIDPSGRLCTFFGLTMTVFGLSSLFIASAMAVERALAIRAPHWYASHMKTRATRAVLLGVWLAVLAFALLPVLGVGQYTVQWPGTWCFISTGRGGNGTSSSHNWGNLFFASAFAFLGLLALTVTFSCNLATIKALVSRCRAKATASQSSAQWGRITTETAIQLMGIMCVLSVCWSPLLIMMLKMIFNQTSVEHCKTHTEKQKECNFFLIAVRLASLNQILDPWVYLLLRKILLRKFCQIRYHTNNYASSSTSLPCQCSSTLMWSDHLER
Description: as §1, §2

EP1 receptor = target: T3, EP1 receptor (Homo sapiens, UniProt P34995); assay: Assay for binding to prostaglandin E2 receptors, 3H-PGE2 displacement (EP1); conditions: displacement of 3H-prostaglandin E2, membranes of transfected 293S cells; read-out: IC50 at EP1 receptor subtype
T3 construct: These full length receptors are used to prepare 293S cells expressing the EP1, EP2, EP3 and EP4 receptors; expressed in transfected cells; membranes
T3 sequence (P34995 1-402): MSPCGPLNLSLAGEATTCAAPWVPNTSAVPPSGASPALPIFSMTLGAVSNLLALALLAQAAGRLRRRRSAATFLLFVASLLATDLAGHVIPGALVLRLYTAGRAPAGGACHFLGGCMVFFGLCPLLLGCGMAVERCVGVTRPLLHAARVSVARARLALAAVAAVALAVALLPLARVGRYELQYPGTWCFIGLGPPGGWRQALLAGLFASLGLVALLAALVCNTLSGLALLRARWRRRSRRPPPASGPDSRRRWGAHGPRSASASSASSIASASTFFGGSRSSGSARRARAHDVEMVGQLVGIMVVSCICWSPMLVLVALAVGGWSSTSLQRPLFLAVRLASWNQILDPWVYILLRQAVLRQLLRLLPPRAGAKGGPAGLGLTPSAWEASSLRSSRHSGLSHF
Description: as §1, §2

EP4 receptor = target: T4, EP4 receptor (Homo sapiens, UniProt P35408); assay: Assay for binding to prostaglandin E2 receptors, 3H-PGE2 displacement (EP4); conditions: displacement of 3H-prostaglandin E2, membranes of transfected 293S cells
T4 construct: These full length receptors are used to prepare 293S cells expressing the EP1, EP2, EP3 and EP4 receptors; expressed in transfected cells; membranes
Description: as §1, §2

T4 sequence (P35408 whole entry): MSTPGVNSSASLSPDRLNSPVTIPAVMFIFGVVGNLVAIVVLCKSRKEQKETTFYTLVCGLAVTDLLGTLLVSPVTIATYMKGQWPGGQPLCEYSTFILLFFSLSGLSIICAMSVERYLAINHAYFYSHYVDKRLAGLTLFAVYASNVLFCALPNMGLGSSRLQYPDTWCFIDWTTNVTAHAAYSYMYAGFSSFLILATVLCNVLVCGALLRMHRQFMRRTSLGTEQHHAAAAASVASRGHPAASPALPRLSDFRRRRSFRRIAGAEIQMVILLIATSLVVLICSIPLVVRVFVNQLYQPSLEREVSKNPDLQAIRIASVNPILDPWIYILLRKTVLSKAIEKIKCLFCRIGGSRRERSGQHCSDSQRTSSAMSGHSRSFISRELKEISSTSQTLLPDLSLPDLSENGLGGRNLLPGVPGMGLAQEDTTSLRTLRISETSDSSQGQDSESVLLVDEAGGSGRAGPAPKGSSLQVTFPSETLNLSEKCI
T1 sequence (P43116 whole entry): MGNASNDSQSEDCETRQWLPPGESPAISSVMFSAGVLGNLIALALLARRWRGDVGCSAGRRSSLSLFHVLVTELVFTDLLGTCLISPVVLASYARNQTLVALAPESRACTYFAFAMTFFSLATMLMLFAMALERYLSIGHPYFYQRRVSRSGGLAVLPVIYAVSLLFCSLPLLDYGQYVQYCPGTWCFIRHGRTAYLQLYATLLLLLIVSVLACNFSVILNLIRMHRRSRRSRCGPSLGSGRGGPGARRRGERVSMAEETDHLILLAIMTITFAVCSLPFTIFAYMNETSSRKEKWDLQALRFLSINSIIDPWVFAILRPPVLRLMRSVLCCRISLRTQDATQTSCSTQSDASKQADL

O=C(O)CCCCCCN1C(=O)CCC1CCC(O)Cc1ccccc1 (centres unmarked) [7-(2-(3-hydroxy-4-phenyl-butyl)-5-oxo-pyrrolidin-1-yl)-heptanoic acid]
efficacy in reperfusion renal injury [1]: effective 24 hours following reperfusion
IC50 (EP2 receptor): > 3.2 µM
animals survived after seven days ([2]; dose of 10 mg/kg, control group four out of ten): nine out of ten
protection against renal injury, based on serum parameters ([2]; dosed just prior to the nephrotoxic insult): effective in protecting against renal injury
survival time of animals ([2]; doses 1 mg/kg and 10 mg/kg, 10 mg/kg better than 1 mg/kg): increased the survival time of animals in a dose dependent manner
IC50 (EP3 receptor): > 3.2 µM
IC50 (EP1 receptor): > 3.2 µM
IC50 (EP4 receptor): 0.016 µM

Reference: patent US6610719B2 (Pfizer Inc., priority 2000, dated 2003)
